# Test results taken from patent US10689380B1, “Crystalline forms of valbenazine ditosylate” (Farmhispania S.A., priority 2019, dated 2020).
# Legend:
# [1] = Dynamic Vapour Sorption (DVS) analysis; assay type: physicochemical; settings: 25° C., first cycle
# Procedure: (§1) As used herein, DVS means Dynamic Vapour Sorption Analysis. Unless stated otherwise, DVSs were performed according to the following equipment and conditions: DVS-1000 instrument by Surface Measurement Systems was used. Samples were prepared by transferring them into an aluminum crucible and loading this into the DVS. A method utilizing two cycles (0% to 90% RH) and (90% to 0% RH) was run. The equilibrium condition for each step was set to a mass constancy of ±0.001% over 60 min and a maximum time limit of 1440 min for each step. This method was undertaken at 25° C.
# [2] = Stability against temperature stress as indicated by DSC and DVS data; assay type: physicochemical
# Procedure: as §1, with “C. As used herein, DSC means Differential Scanning calorimetry Analysis. Unless stated otherwise, DSCs were performed according to the following equipment and conditions: DSC 822e Mettler Toledo. Crucible: Aluminum crucible with a capacity of 40 μL and with hole the lid. Gas: Dry nitrogen 50 mL/min. Method standard: Heating from 30° C. to 300° C. at a rate of 10° C./min.” for “C.”
Substance,"polymorphic change associated with the sorption/desorption phenomenon in DVS, based on XRPD analysis ([1]; 70-80% relative humidity)",water sorption by the sample (DVS) ([1]; at 70% relative humidity),water desorption by the sample (DVS) ([1]; at 80% relative humidity),water sorption by the sample (DVS) ([1]; at 90% relative humidity),stability against temperature stress for formulation into an oral solid dosage form [2]
valbenazine ditosylate [Form D],transformation to polymorphic form II,approximately 6.0%,4.0%,–,–
valbenazine ditosylate [Form E],–,–,–,approximately 1.4%,stable against temperature stress
